Where two headings read alike, the source gives them in different places.

The target of assay [1] is T1, human cathepsin L (Homo sapiens, UniProt P07711).
T1 construct: purchased R&D Systems
The experiment in a line: Cathepsin L assay (Z-FR-AMC fluorescence). Type of assay: biochemical. The settings on record: 10 pM human cathepsin L, 30 mins preincubation, Z-FR-AMC 2 μM. The method, then:
For the cathepsin L assay, 10 pM of human cathepsin L (R&D Systems; Minneapolis, MN) was preincubated for 30 mins with test compounds. Reactions were initiated by the addition of a peptide substrate Z—FR-AMC (final concentration 2 μM, Anaspec; Fremont, CA). Fluorescence was measured at 2-minute intervals for 30 mins using a 355/460 excitation/emission filter module on an Envision plate reader (Perkin Elmer; Waltham, MA). The IC50 values were calculated for each assay by fitting the curves using a four-parameter equation in GraphPad Prism.

The test system of assay [2] is human beta-coronavirus OC43. The experiment in a line: OC43 coronavirus antiviral assay in HeLa cells (cytopathic effect, cell-titer-glo). Type of assay: cell-based. The settings on record: Betacoronavirus 1, OC43, HeLa, 144 h, 6 days at 33° C.
The target of assay [3] is T2, SARS-Cov-2 3CLpro (Severe acute respiratory syndrome coronavirus 2, UniProt P0DTD1).
T2 construct: 3CLpro and HRV3C was added using a Multidrop Combi
As to the kind of experiment: biochemical. The settings on record: 3CLpro, 30 mins preincubation, SAMDI-MS; read-out: SARS-Cov-2 IC50 (class).

Assay [4] addresses T3, HRV3C (Human rhinovirus 14, UniProt P03303).
T3 construct: 3CLpro and HRV3C was added using a Multidrop Combi
As to the kind of experiment: biochemical. Also noted: species or system HRV. The settings on record: HRV3C, 30 mins preincubation, SAMDI-MS; read-out: HRV IC50 (bound).

Assay [5] relates to B.1.1.7 lineage SARS-CoV-2. The experiment in a line: microbe, parasite or virus in culture. Type of assay: cell-based. The settings on record: Severe acute respiratory syndrome coronavirus 2, 96 h, read-out: A549-dual_ACE2_TMPRSS2 (EC50).

T1 sequence (P07711 114-333): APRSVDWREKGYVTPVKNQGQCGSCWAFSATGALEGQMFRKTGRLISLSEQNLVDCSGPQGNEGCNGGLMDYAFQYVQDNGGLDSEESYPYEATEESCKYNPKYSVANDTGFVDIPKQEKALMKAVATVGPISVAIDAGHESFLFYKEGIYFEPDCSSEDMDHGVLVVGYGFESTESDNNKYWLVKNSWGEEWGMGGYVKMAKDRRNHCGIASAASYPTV
T3 sequence (P03303 1538-1719): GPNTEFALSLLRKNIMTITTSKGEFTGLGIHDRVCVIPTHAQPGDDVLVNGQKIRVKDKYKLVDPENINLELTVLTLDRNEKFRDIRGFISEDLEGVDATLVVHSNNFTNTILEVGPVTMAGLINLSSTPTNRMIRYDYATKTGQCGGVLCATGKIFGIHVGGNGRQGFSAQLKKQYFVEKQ

As to `CC(C)(C)[C@H](NC(=O)C(F)(F)F)C(=O)N1C[C@H]2[C@H]3CC[C@H](CC3)[C@H]2[C@@H]1C(=O)N[C@H](C#N)C[C@@H]1CCNC1=O` [Compound 71a], the figures for the concentration for half-maximal inhibition (IC50) in assay [1], in assay [3] and in assay [4] were no less than 10000 nM, 2000 to 20000 nM and greater than 10000 nM, respectively. Also, the EC50 in assay [2] (read-out: EC50 (bound)) was greater than 10000 nM; in assay [5] ([…], numeric bounds given instead of class symbols), greater than 10000 nM.
With `CC(C)(C)[C@H](NC(=O)C1(F)CCC1)C(=O)N1C[C@H]2[C@@H]([C@H]1C(=O)N[C@H](C#N)C[C@@H]1CCNC1=O)[C@H]1C=C[C@@H]2C1` [Compound 65, (1S,3aR,4S,7R,7aS)-N-((S)-1-cyano-2-((S)-2-oxopyrrolidin-3-yl)ethyl)-2-((S)-2-(1-fluorocyclobutane-1-carboxamido)-3,3-dimethylbutanoyl)-2,3,3a,4,7,7a-hexahydro-1H-4,7-methanoisoindole-1-carboxamide], the figures for the IC50 in assay [1], in assay [3] and in assay [4] were no less than 10000 nM, less than 20 nM and greater than 10000 nM, respectively. Besides, the EC50 in assay [2] (read-out: EC50 (class)) and in assay [5] was less than 100 nM each time.
Consider `CC(C)(C)[C@H](NC(=O)CC(F)(F)F)C(=O)N1C[C@H]2[C@@H]([C@H]1C(=O)N[C@H](C#N)C[C@@H]1OCCNC1=O)[C@H]1C=C[C@@H]2C1` [Compound 132], for which the IC50 in assay [1] is no less than 10000 nM; in assay [3], less than 20 nM; in assay [4], greater than 500 nM. In addition, the EC50 in assay [2] (read-out: EC50 (class)) and in assay [5] was less than 100 nM throughout.
For the compound `CC(C)(C)[C@H](NC(=O)C(F)(Cl)Cl)C(=O)N1C[C@@H]2[C@@H]3CC[C@@H](C3)[C@@H]2[C@H]1C(=O)N[C@H](C#N)C[C@@H]1CCNC1=O` [Compound 67, (1S,2S,3S,6R,7R)—N-[(1S)-1-cyano-2-[(3S)-2-oxopyrrolidin-3-yl]ethyl]-4-[(2S)-2-(2,2-dichloro-2-fluoroacetamido)-3,3-dimethylbutanoyl]-4-azatricyclo[5.2.1.0^{2,6}]decane-3-carboxamide], the concentration for half-maximal inhibition (IC50) in assay [1] is no less than 10000 nM; in assay [3] it was less than 20 nM; in assay [4], greater than 10000 nM. For the same compound, the EC50 in assay [2] (read-out: EC50 (class)) and in assay [5] was less than 100 nM in each case.
As to `CC(F)(F)C(=O)N[C@H](C(=O)N1C[C@H]2[C@@H]([C@H]1C(=O)N[C@H](C#N)C[C@@H]1CCNC1=O)[C@H]1C=C[C@@H]2C1)C(C)(C)C` [Compound 73], the IC50 in assay [1] was no less than 10000 nM; in assay [3] it was less than 20 nM; in assay [4], greater than 10000 nM. The EC50 in assay [2] (read-out: EC50 (class)) and in assay [5] was less than 100 nM each time.
Take `CC(C)(C)[C@H](NC(=O)C(F)(F)F)C(=O)N1C[C@H]2[C@@H]([C@H]1C(=O)N[C@H](C#N)C[C@@H]1Oc3ccccc3NC1=O)[C@H]1C=C[C@@H]2C1` [Compound 52, (1S,3aR,4S,7R,7aS)-N-((S)-1-cyano-2-((S)-3-oxo-3,4-dihydro-2H-benzo[b][1,4]oxazin-2-yl)ethyl)-2-((S)-3,3-dimethyl-2-(2,2,2-trifluoroacetamido)butanoyl)-2,3,3a,4,7,7a-hexahydro-1H-4,7-methanoisoindole-1-carboxamide]: the concentration for half-maximal inhibition (IC50) is no less than 10000 nM in assay [1], less than 20 nM in assay [3] and greater than 10000 nM in assay [4]. In addition, the EC50 in assay [2] (read-out: EC50 (class)) and in assay [5] was 100 to 1000 nM each time.
With `CC(C)(C)[C@H](NC(=O)C(F)(F)F)C(=O)N1C[C@H]2[C@@H]([C@H]1C(=O)N[C@H](C#N)C[C@@H]1CCNC1=O)[C@H]1CC[C@@H]2O1` (relative stereo) [Compound 58b], the IC50 is no less than 10000 nM in assay [1], 200 to 2000 nM in assay [3] and greater than 10000 nM in assay [4]. Also, the EC50 in assay [2] (read-out: EC50 (class)) and in assay [5] was 1000 to 10000 nM throughout.
Consider `CC(C)(F)C(=O)N[C@H](C(=O)N1C[C@H]2[C@@H]([C@H]1C(=O)N[C@H](C#N)C[C@@H]1CCNC1=O)[C@H]1C=C[C@@H]2C1)C(C)(C)C` [Compound 74], for which the half-maximal inhibitory concentration (IC50) was no less than 10000 nM in assay [1], less than 20 nM in assay [3] and greater than 10000 nM in assay [4]. Also, the concentration giving a half-maximal response (EC50) in assay [2] (read-out: EC50 (class)) and in assay [5] was less than 100 nM in each case.
Consider `CC(C)(C)[C@H](NC(=O)C(F)F)C(=O)N1C[C@H]2[C@@H]([C@H]1C(=O)N[C@H](C#N)C[C@@H]1CCNC1=O)[C@H]1C=C[C@@H]2C1` [Compound 72, (1S,3aR,4S,7R,7aS)-N-((S)-1-cyano-2-((S)-2-oxopyrrolidin-3-yl)ethyl)-2-((S)-2-(2,2-difluoroacetamido)-3,3-dimethylbutanoyl)-2,3,3a,4,7,7a-hexahydro-1H-4,7-methanoisoindole-1-carboxamide], for which the figures for the IC50 in assay [1], in assay [3] and in assay [4] were no less than 10000 nM, less than 20 nM and greater than 10000 nM, respectively. Also, the EC50 in assay [2] (read-out: EC50 (class)) and in assay [5] was less than 100 nM throughout.
For `COC(C)(C)C(=O)N[C@H](C(=O)N1C[C@H]2[C@@H]([C@H]1C(=O)N[C@H](C#N)C[C@@H]1CCNC1=O)[C@H]1C=C[C@@H]2C1)C(C)(C)C` [Compound 77], the IC50 in assay [1] is no less than 10000 nM; in assay [3] it was 20 to 200 nM; in assay [4], greater than 10000 nM. Further, the EC50 in assay [2] (read-out: EC50 (class)) was in the range of 1000 to 10000 nM; in assay [5], 100 to 1000 nM.
Turning to `CC(C)(C)[C@H](NC(=O)C(F)(F)F)C(=O)N1C[C@H]2[C@@H]([C@H]1C(=O)N[C@H](C#N)C[C@@H]1OCCNC1=O)[C@H]1C=C[C@@H]2C1` [Compound 114, (1S,3aR,4S,7R,7aS)-N-((S)-1-cyano-2-((S)-3-oxomorpholin-2-yl)ethyl)-2-((S)-3,3-dimethyl-2-(2,2,2-trifluoroacetamido)butanoyl)-2,3,3a,4,7,7a-hexahydro-1H-4,7-methanoisoindole-1-carboxamide], the figures for the IC50 in assay [1], in assay [3] and in assay [4] were no less than 10000 nM, less than 20 nM and greater than 500 nM, respectively. For the same compound, the EC50 in assay [2] (read-out: EC50 (class)) and in assay [5] was less than 100 nM in each case.
For the compound `CC(C)(C)[C@H](NC(=O)C(F)(F)C(F)(F)F)C(=O)N1C[C@H]2[C@@H]([C@H]1C(=O)N[C@H](C#N)C[C@@H]1CCNC1=O)[C@H]1C=C[C@@H]2C1(F)F` [Compound 129, (1R,2R,3S,6S,7S)—N-[(1S)-1-cyano-2-[(3S)-2-oxopyrrolidin-3-yl]ethyl]-4-[(2S)-3,3-dimethyl-2-(2,2,3,3,3-pentafluoropropanamido)butanoyl]-10,10-difluoro-4-azatricyclo[5.2.1.0^{2,6}]dec-8-ene-3-carboxamide], the IC50 was no less than 10000 nM in assay [1], less than 20 nM in assay [3] and greater than 500 nM in assay [4]. Also, the EC50 in assay [2] (read-out: EC50 (class)) and in assay [5] was less than 100 nM each time.
`CC(C)(C)[C@H](NC(=O)C(F)(F)F)C(=O)N1C[C@H]2[C@@H]([C@H]1C(=O)N[C@H](C#N)C[C@@H]1Oc3ccncc3NC1=O)[C@H]1C=C[C@@H]2C1` [Compound 109, (1S,3aR,4S,7R,7aS)-N-((S)-1-cyano-2-((S)-3-oxo-3,4-dihydro-2H-pyrido[4,3-b][1,4]oxazin-2-yl)ethyl)-2-((S)-3,3-dimethyl-2-(2,2,2-trifluoroacetamido)butanoyl)-2,3,3a,4,7,7a-hexahydro-1H-4,7-methanoisoindole-1-carboxamide]: the IC50 was no less than 10000 nM in assay [1], less than 20 nM in assay [3] and greater than 500 nM in assay [4]. The EC50 in assay [2] (read-out: EC50 (class)) and in assay [5] was less than 100 nM in each case.
Turning to `CC(C)(C)[C@H](NC(=O)C(F)(F)C(F)(F)F)C(=O)N1C[C@H]2[C@@H]([C@H]1C(=O)N[C@H](C#N)C[C@@H]1CCNC1=O)[C@H]1C=C[C@@H]2C1` [Compound 76, (1S,3aR,4S,7R,7aS)-N-((S)-1-cyano-2-((S)-2-oxopyrrolidin-3-yl)ethyl)-2-((S)-3,3-dimethyl-2-(2,2,3,3,3-pentafluoropropanamido)butanoyl)-2,3,3a,4,7,7a-hexahydro-1H-4,7-methanoisoindole-1-carboxamide], the concentration for half-maximal inhibition (IC50) in assay [1] was no less than 10000 nM; in assay [3], less than 20 nM; in assay [4] it was greater than 10000 nM. The EC50 in assay [2] (read-out: EC50 (class)) and in assay [5] was less than 100 nM each time.
For the compound `CO[C@](C)(C(=O)N[C@H](C(=O)N1C[C@H]2[C@@H]([C@H]1C(=O)N[C@H](C#N)C[C@@H]1CCNC1=O)[C@H]1C=C[C@@H]2C1)C(C)(C)C)C(F)(F)F` [Compound 78], the IC50 was no less than 10000 nM in assay [1], 20 to 200 nM in assay [3] and greater than 10000 nM in assay [4]. Besides, the EC50 in assay [2] (read-out: EC50 (class)) was 1000 to 10000 nM; in assay [5], 100 to 1000 nM.
Taken in the same sequence, the figures for `CC(C)(C)[C@H](NC(=O)C1(F)CC1)C(=O)N1C[C@@H]2[C@@H]3CC[C@@H](C3)[C@@H]2[C@H]1C(=O)N[C@H](C#N)C[C@@H]1CCNC1=O` [Compound 64, (1S,2S,3S,6R,7R)—N-[(1S)-1-cyano-2-[(3S)-2-oxopyrrolidin-3-yl]ethyl]-4-[(2S)-2-[(1-fluorocyclopropyl)formamido]-3,3-dimethylbutanoyl]-4-azatricyclo[5.2.1.0^{2,6}]decane-3-carboxamide] were no less than 10000 nM, less than 20 nM, greater than 10000 nM, less than 100 nM and less than 100 nM.

Values taken from patent US12252481B2, “Anti-viral compounds” (Aligos Therapeutics, Inc., priority 2021, dated 2025).
